Data as given in patent US6350720B2, “Substituted phenyltriazolin(THI)ones and their use as herbicides” (Bayer Aktiengesellschaft, priority 1997, dated 2002).

melting point: 179 °C
SMILES: CCS(=O)(=O)N(C(C)=O)c1cc(-n2nc(C(F)(F)F)n(C)c2=O)c(F)cc1C#N
